We go through 25 compounds from patent US20170029366A1, “INHIBITORS OF HISTONE LYSINE SPECIFIC DEMETHYLASE (LSD1) AND HISTONE DEACETYLASES (HDACS)” (THE JOHNS HOPKINS UNIVERSITY, priority 2014, published 2017).

Several values for one entry are separate records, joined by “and”; a condition that tells them apart may be missing. Equal entries are not always repeated. Structures can show the parent of a compound that is named as a salt.

The target in assay [1] is T1, GST-LSD1 (Homo sapiens, UniProt O60341). The settings on record: for k(inact) / KI (inactivation): GST-LSD1, peroxidase-coupled assay; for k(inact)/Ki(inact): GST-LSD1 inactivation efficiency; for LSD1 inhibitory potency (in words): structure-activity comment on Table 1; for KI (inactivation): extrapolated to zero substrate.
Assay [2] deals with Immature primary cortical neurons. Description: Oxidative toxicity (HCA) and neuron viability assay (MTT). The settings on record: 10 M phenelzine compared with 0.5 μM bizine. It is filed as cell-based, Sprague Dawley rats.
Method: The next day cells were rinsed and then placed in medium containing 5 mM HCA. […] The next day, cell viability was assessed by the MTT assay (Promega). […] The two-way ANOVA followed by the Bonferroni posttest was used to measure statistical significance. p<0.05 was considered to be statistically significant. Each bar represents four different rat cultures.
The next assay relates to H3K4Me2 in LNCaP cells. In words: Western blot of histone H3 marks in LNCaP cells. Format: cell-based. To be noted: 48 h, concentrations up to 40 M. (Immunoblotting shows a protein as a band on a membrane.)
Assay [3] has as its target T1, GST-LSD1. In words: biochemical.
The test system of a further assay is LNCaP cells. In words: Drug combination experiments with bizine ([3H] thymidine, Combination Index). Format: cell-based. The settings on record: binary combination with bizine, 48 h, 3H-thymidine incorporation. (In general: Dividing cells build labelled thymidine or BrdU into new DNA.)

From the text for H3K4Me2 in LNCaP cells: Histone extracts were isolated as described previously. […] Data are presented from one representative experiment.
H3K4Me was detected using a polyclonal rabbit antibody (abcam ab8895). H3K4Me2 was detected using a monoclonal rabbit antibody (abcam ab32356). H3K4Me3 was detected using a polyclonal rabbit antibody (abcam ab8580). […] H3K9Me2 was detected using a monoclonal mouse antibody (abcam ab1220). H3K36Me3 was detected using a polyclonal rabbit antibody (abcam ab9050). H3K9Ac was detected using a polyclonal rabbit antibody (abcam ab4441). Total H3 was detected using a polyclonal rabbit antibody (abcam ab1791). LSD1 was detected using a polyclonal rabbit antibody (abcam ab17721). Actin was detected using a monoclonal mouse antibody (Sigma A1978).

Take `NNCCc1ccccc1` [phenelzine, reference compound]: the “k(inact)” value at GST-LSD1 [1] was 0.35 min⁻¹ and 0.35 ± 0.056 min⁻¹. In addition, the “neuroprotection after HCA-treatment” value in assay [2] is “comparable”. Besides, the H3K4Me2 changes entry in the assay on H3K4Me2 in LNCaP cells is listed as “did not induce H3K4Me2 changes”.
With `COc1ccc(CCCNN)cc1.Cl.Cl` [Compound 9e, [3-(4-Methoxyphenyl)propyl]hydrazine dihydrochloride], at GST-LSD1 [1], the “k(inact)” value amounted to 0.15 ± 0.023 min⁻¹, the “k(inact)/Ki(inact)” value amounted to 317 ± 145 M⁻¹ s⁻¹ and the “LSD1 inhibitory potency (in words)” value was “made little difference”.
`Cl.Cl.NNCCCc1ccccc1` [Compound 9c, (3-Phenylpropyl)hydrazine dihydrochloride]: the “k(inact)” value at GST-LSD1 [1] turned out to be 0.32 ± 0.010 min⁻¹.
As for `NNCCc1ccc(NC(=O)CCc2ccccc2)cc1.O=S(=O)(O)O` [Compound 12c, N-[4-(2-Hydrazinylethyl)phenyl]-3-phenylpropanamide sulfate], at GST-LSD1 [1], the “k(inact)” value amounted to 0.24 ± 0.022 min⁻¹ and the “k(inact)/Ki(inact)” value came out at 15300 ± 3670 M⁻¹ s⁻¹.
On to `NNCCc1ccc(N(Cc2ccccc2)C(=O)CCCc2ccccc2)cc1.O=C(O)C(=O)O` [Compound 12m, N-Benzyl-N-[4-(2-hydrazinylethyl)phenyl]-4-phenylbutanamide oxalate], for which, on GST-LSD1 [1], the “k(inact)” value was determined as 0.22 ± 0.025 min⁻¹ and the “k(inact)/Ki(inact)” value is 2330 ± 733 M⁻¹ s⁻¹.
The like results for `NNCCc1ccc(NC(=O)CCCc2ccc([N+](=O)[O-])cc2)cc1.O=S(=O)(O)O` [Compound 12i, N-[4-(2-Hydrazinylethyl)phenyl]-4-(4-nitrophenyl)butanamide sulfate] were, in that order, 0.21 ± 0.024 min⁻¹ and 12300 ± 3670 M⁻¹ s⁻¹.
`Cl.Cl.NNCCCOc1ccccc1` [Compound 10b, (3-Phenoxypropyl)hydrazine dihydrochloride]: on GST-LSD1 [1], the “k(inact)” value is 0.22 ± 0.020 min⁻¹ and the “k(inact)/Ki(inact)” value turned out to be 300 ± 60 M⁻¹ s⁻¹.
With `COc1ccc(CCCC(=O)Nc2ccc(CCNN)cc2)cc1.O=S(=O)(O)O` [Compound 12h, N-[4-(2-Hydrazinylethyl)phenyl]-4-(4-methoxyphenyl)butanamide sulfate], at GST-LSD1 [1], the “k(inact)” value came out at 0.26 ± 0.042 min⁻¹, the KI (inactivation) is 207 ± 89 nM and the “k(inact)/Ki(inact)” value turned out to be 20000 ± 9500 M⁻¹ s⁻¹.
The term IC50 denotes the concentration at which inhibition is half-maximal. Low values mean greater potency in that assay, high ones weaker potency in that assay. `CN(C)NCCc1ccccc1` [Compound 9b, 1,1-Dimethyl-2-(2-phenylethyl)hydrazine]: the 50% inhibitory concentration (IC50) at GST-LSD1 [3] is above 100000 nM.
Regarding `Cl.Cl.NNCCCCc1ccccc1` [Compound 9h, (4-Phenylbutyl)hydrazine dihydrochloride], on GST-LSD1 [1], the “k(inact)” value turned out to be 0.12 ± 0.01 min⁻¹ and the “k(inact)/Ki(inact)” value was determined as 91.7 ± 14.5 M⁻¹ s⁻¹.
For `NNCCc1ccc(NC(=O)CCCc2ccc(Cl)cc2)cc1.O=S(=O)(O)O` [Compound 12f, 4-(4-Chlorophenyl)-N-[4-(2-hydrazinylethyl)phenyl]butanamide sulfate], at GST-LSD1 [1], the “k(inact)” value turned out to be 0.17 ± 0.018 min⁻¹ and the “k(inact)/Ki(inact)” value turned out to be 18300 ± 5830 M⁻¹ s⁻¹.
As for `NNCCc1ccc(NC(=O)/C=C/c2ccccc2)cc1.O=S(=O)(O)O` [Compound 13, (2E)-N-[4-(2-Hydrazinylethyl)phenyl]-3-phenylprop-2-enamide sulfate], on GST-LSD1 [1], the “k(inact)” value was determined as 0.17 ± 0.21 min⁻¹, the “k(inact)/Ki(inact)” value came to 28300 ± 11300 M⁻¹ s⁻¹ and the “LSD1 inhibitory potency (in words)” value is recorded as “reduced LSD1 inhibitory potency”.
As for `NNCCc1ccc(NC(=O)CCCCc2ccccc2)cc1.O=C(O)C(=O)O` [Compound 12e, N-[4-(2-Hydrazinylethyl)phenyl]-5-phenylpentanamide oxalate], on GST-LSD1 [1], the “k(inact)” value stood at 0.22 ± 0.038 min⁻¹ and the “k(inact)/Ki(inact)” value stood at 14300 ± 6500 M⁻¹ s⁻¹.
For the compound `CS(=O)(=O)Oc1cccc(CCC(=O)Nc2ccc(CCNN)cc2)c1.O=C(O)C(=O)O` [Compound 12k, 3-(3-{[4-(2-Hydrazinylethyl)phenyl]amino}-3-oxopropyl)phenyl methanesulfonate oxalate], on GST-LSD1 [1], the “k(inact)” value was found to be 0.17 ± 0.020 min⁻¹, the KI (inactivation) was 223 ± 64 nM and the “k(inact)/Ki(inact)” value was found to be 12700 ± 4000 M⁻¹ s⁻¹.
`NNCCCN1CCOCC1` [Compound 11, 4-(3-Hydrazinylpropyl) morpholine, reference compound] returned a 50% inhibitory concentration (IC50) against GST-LSD1 [3] above 100000 nM. Besides, the “LSD1 inhibitory potency (in words)” value at GST-LSD1 [1] is “not compatible with LSD1 inhibition”.
At GST-LSD1 [3], `CNNCCCc1ccc(OC)cc1` [Compound 9f, 1-[3-(4-Methoxyphenyl)propyl]-2-methylhydrazine dihydrochloride] had a concentration for half-maximal inhibition (IC50) above 100000 nM.
`Cl.Cl.NNCCc1ccc(NC(=O)Cc2ccccc2)cc1` [Compound 12b, N-[4-(2-Hydrazinylethyl)phenyl]-2-phenylacetamide dihydrochloride]: at GST-LSD1 [1], the “k(inact)” value worked out at 0.20 ± 0.0087 min⁻¹ and the “k(inact)/Ki(inact)” value is 9000 ± 900 M⁻¹ s⁻¹.
`NNCCc1ccc(NC(=O)CCc2c[nH]c3ccccc23)cc1.O=S(=O)(O)O` [Compound 15a, N-[4-(2-Hydrazinylethyl)phenyl]-3-(1H-indol-3-yl)propanamide sulfate]: on GST-LSD1 [1], the “k(inact)” value stood at 0.21 ± 0.030 min⁻¹ and the “k(inact)/Ki(inact)” value came out at 16700 ± 6830 M⁻¹ s⁻¹.
As for `Cc1[nH]c2ccccc2c1CCNCc1ccc(/C=C/C(=O)NO)cc1` [LBH-589], the “effect of combination with bizine on cell inhibition (in words)” value with LNCaP cells is “additive to synergistic effects”.
For `CN(C(=O)CCCc1ccccc1)c1ccc(CCNN)cc1.O=C(O)C(=O)O` [Compound 12l, N-[4-(2-Hydrazinylethyl)phenyl]-N-methyl-4-phenylbutanamide oxalate], on GST-LSD1 [1], the “k(inact)” value was 0.24 ± 0.033 min⁻¹ and the “k(inact)/Ki(inact)” value was found to be 2000 ± 750 M⁻¹ s⁻¹.
As for `Nc1ccccc1NC(=O)c1ccc(CNC(=O)OCc2cccnc2)cc1` [MS-275], the “effect of combination with bizine on cell inhibition (in words)” value in the assay on LNCaP cells is given as “additive to synergistic effects”.
With `Cl.Cl.NNCCOc1ccccc1` [Compound 10a, (2-Phenoxyethyl)hydrazine dihydrochloride], on GST-LSD1 [1], the “k(inact)” value came to 0.15 ± 0.010 min⁻¹ and the “k(inact)/Ki(inact)” value was determined as 56.7 ± 13.2 M⁻¹ s⁻¹.
In the case of `Cl.Cl.NNCCc1ccc(NC(=O)c2ccccc2)cc1` [Compound 12a, N-[4-(2-Hydrazinylethyl)phenyl]benzamide dihydrochloride], on GST-LSD1 [1], the “k(inact)” value came to 0.19 ± 0.036 min⁻¹ and the “k(inact)/Ki(inact)” value turned out to be 11700 ± 5170 M⁻¹ s⁻¹.
Take `NNCCCc1ccc(OCc2ccccc2)cc1` [Compound 14, {3-[4-(Benxyloxy)phenyl]propyl}hydrazine]: on GST-LSD1 [1], the “k(inact)” value was 0.18 ± 0.038 min⁻¹, the KI (inactivation) was 900 ± 450 nM, the “k(inact)/Ki(inact)” value was 3330 ± 1830 M⁻¹ s⁻¹ and the “LSD1 inhibitory potency (in words)” value is “reduced LSD1 inhibitory potency”.
Consider `CS(=O)(=O)Oc1ccccc1CCC(=O)Nc1ccc(CCNN)cc1.O=C(O)C(=O)O` [Compound 12j, 2-(3-{[4-(2-Hydrazinylethyl)phenyl]amino}-3-oxopropyl)phenyl methanesulfonate oxalate], for which, on GST-LSD1 [1], the “k(inact)” value was 0.18 ± 0.034 min⁻¹, the KI (inactivation) is 204 ± 98 nM and the “k(inact)/Ki(inact)” value was found to be 14700 ± 7670 M⁻¹ s⁻¹.
